Patent publication US12012417B2, “N-substituted tetrahydrothienopyridine derivatives and uses thereof” (NOVARTIS AG, priority 2018, dated 2024)

Tests used:
[1] = system: Dengue 2 virus MY97-10340; experiment: High-content imaging cell-based flavivirus immunodetection (HCl-CFI) assay, Dengue 2; settings: for EC50: Dengue virus, A549, 48 h, read-out: Dengue 2 virus MY97-10340 in A549 using HCl [Inhibitor/IC50] Qualified AC50, A549 cells, MOI 0.3, 48 h, viral E protein expression
Summary of the method: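 A549 cells infected at MOI 0.3, treated with 3-fold, 10-point compound dilutions for 48 h. After paraformaldehyde fixation, viral E protein immunostained with 4G2 antibody and nuclei counterstained; imaged by high-content imaging. EC50 = concentration reducing E protein expression by 50%, from dose-response curves.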

[2] = system: Dengue 1 virus MY97-10245; experiment: High-content imaging cell-based flavivirus immunodetection (HCl-CFI) assay, Dengue 1; settings: for EC50: Dengue virus, A549, 48 h, read-out: Dengue 1 virus MY97-10245 in A549 using HCl [Inhibitor/IC50] Qualified AC50
[3] = system: Dengue 4 virus MY01-22713; experiment: High-content imaging cell-based flavivirus immunodetection (HCl-CFI) assay, Dengue 4; settings: for EC50: Dengue virus, A549, 48 h, read-out: Dengue 4 virus MY01-22713 in A549 using HCl [Inhibitor/IC50] Qualified AC50, A549 cells, 48 h, viral E protein expression
[4] = system: Dengue 3 virus MY05-34640-WT-C6/36; experiment: High-content imaging cell-based flavivirus immunodetection (HCl-CFI) assay, Dengue 3; settings: for EC50: Dengue virus, A549, 48 h, read-out: Dengue 3 virus MY05-34640-WT-C6/36 in A549 using HCl [Inhibitor/IC50] Qualified AC50
[5] = A549 cells, 48 h, viral E protein expression

| SMILES | EC50 [1] [nM] | EC50 [2] [nM] | EC50 [3] [nM] | EC50 [4] [nM] | Dengue 2 virus MY97-10340 in A549 using HCl [Inhibitor/IC50] Qualified AC50 ([1]; A549 cells, MOI 0.3, 48 h, viral E protein expression) | Dengue 1 virus MY97-10245 in A549 using HCl [Inhibitor/IC50] Qualified AC50 [2, 5] | Dengue 4 virus MY01-22713 in A549 using HCl [Inhibitor/IC50] Qualified AC50 [3, 5] | Dengue 3 virus MY05-34640-WT-C6/36 in A549 using HCl [Inhibitor/IC50] Qualified AC50 [4, 5] |
| --- | --- | --- | --- | --- | --- | --- | --- | --- |
| N#Cc1c(NC(=O)Cc2ccc(S(N)(=O)=O)cc2)sc2c1CCN(Cc1ccc(F)c(F)c1)C2 [Example 105, N-(3-cyano-6-(3,4-difluorobenzyl)-4,5,6,7-tetrahydrothieno[2,3-c]pyridin-2-yl)-2-(4-sulfamoylphenyl)acetamide] | 100 to 1000 | > 1000 | 100 to 1000 | 100 to 1000 |  |  |  |  |
| N#Cc1c(NC(=O)Cc2ccc(S(N)(=O)=O)cc2)sc2c1CCN(Cc1cccc(F)c1F)C2 [Example 106, N-(3-cyano-6-(2,3-difluorobenzyl)-4,5,6,7-tetrahydrothieno[2,3-c]pyridin-2-yl)-2-(4-sulfamoylphenyl)acetamide] | < 100 | 100 to 1000 | < 100 | < 100 |  |  |  |  |
| N#Cc1c(NC(=O)Cc2ccc(S(N)(=O)=O)cc2)sc2c1CCN(Cc1ccc(F)cc1Cl)C2 [Example 107, N-(6-(2-chloro-4-fluorobenzyl)-3-cyano-4,5,6,7-tetrahydrothieno[2,3-c]pyridin-2-yl)-2-(4-sulfamoylphenyl)acetamide] | 100 to 1000 | 100 to 1000 | < 100 | 100 to 1000 |  |  |  |  |
| COC(=O)c1cccc(CN2CCc3c(sc(NC(=O)Cc4ccc(S(N)(=O)=O)cc4)c3C#N)C2)c1 [Example 108, Methyl 3-((3-cyano-2-(2-(4-sulfamoylphenyl)acetamido)-4,7-dihydrothieno[2,3-c]pyridin-6(5H)-yl)methyl)benzoate] | < 100 | 100 to 1000 | < 100 | < 100 |  |  |  |  |
| Cc1cc(C)cc(CN2CCc3c(sc(NC(=O)Cc4ccc(S(N)(=O)=O)cc4)c3C#N)C2)c1 [Example 110, N-(3-cyano-6-(3,5-dimethylbenzyl)-4,5,6,7-tetrahydrothieno[2,3-c]pyridin-2-yl)-2-(4-sulfamoylphenyl)acetamide] | < 100 | 100 to 1000 | < 100 | < 100 |  |  |  |  |
| N#Cc1c(NC(=O)Cc2ccc(S(N)(=O)=O)cc2)sc2c1CCN(Cc1c(F)cccc1Cl)C2 [Example 111, N-(6-(2-chloro-6-fluorobenzyl)-3-cyano-4,5,6,7-tetrahydrothieno[2,3-c]pyridin-2-yl)-2-(4-sulfamoylphenyl)acetamide] | < 100 | 100 to 1000 | < 100 | < 100 |  |  |  |  |
| N#Cc1c(NC(=O)Cc2ccc(S(N)(=O)=O)cc2)sc2c1CCN(Cc1c(Cl)cccc1Cl)C2 [Example 112, N-(3-cyano-6-(2,6-dichlorobenzyl)-4,5,6,7-tetrahydrothieno[2,3-c]pyridin-2-yl)-2-(4-sulfamoylphenyl)acetamide] | 100 to 1000 | > 1000 | < 100 | 100 to 1000 |  |  |  |  |
| N#Cc1c(NC(=O)Cc2ccc(S(N)(=O)=O)cc2)sc2c1CCN(Cc1cc(F)ccc1F)C2 [Example 113, N-(3-cyano-6-(2,5-difluorobenzyl)-4,5,6,7-tetrahydrothieno[2,3-c]pyridin-2-yl)-2-(4-sulfamoylphenyl)acetamide] | < 100 | 100 to 1000 | < 100 | < 100 |  |  |  |  |
| N#Cc1c(NC(=O)Cc2ccc(S(N)(=O)=O)cc2)sc2c1CCN(Cc1ccccc1Cl)C2 [Example 114, N-(6-(2-chlorobenzyl)-3-cyano-4,5,6,7-tetrahydrothieno[2,3-c]pyridin-2-yl)-2-(4-sulfamoylphenyl)acetamide] | 100 to 1000 | 100 to 1000 | < 100 | 100 to 1000 |  |  |  |  |
| Cc1cccc(CN2CCc3c(sc(NC(=O)Cc4ccc(S(N)(=O)=O)cc4)c3C#N)C2)c1F [Example 115, N-(3-cyano-6-(2-fluoro-3-methylbenzyl)-4,5,6,7-tetrahydrothieno[2,3-c]pyridin-2-yl)-2-(4-sulfamoylphenyl)acetamide] | < 100 | 100 to 1000 | < 100 | < 100 |  |  |  |  |
| N#Cc1c(NC(=O)Cc2ccc(S(N)(=O)=O)cc2)sc2c1CCN(Cc1c(F)cccc1F)C2 [Example 116, N-(3-cyano-6-(2,6-difluorobenzyl)-4,5,6,7-tetrahydrothieno[2,3-c]pyridin-2-yl)-2-(4-sulfamoylphenyl)acetamide] | < 100 | 100 to 1000 | < 100 | < 100 |  |  |  |  |
| CS(=O)(=O)c1ccc(CC(=O)Nc2sc3c(c2C#N)CCN(Cc2ccc(F)c(F)c2)C3)cc1 [Example 117, N-(3-cyano-6-(3,4-difluorobenzyl)-4,5,6,7-tetrahydrothieno[2,3-c]pyridin-2-yl)-2-(4-(methylsulfonyl)phenyl)acetamide] | 100 to 1000 | 100 to 1000 | < 100 | 100 to 1000 |  |  |  |  |
| Cc1cc(C)cc(CN2CCc3c(sc(NC(=O)Cc4ccc(S(C)(=O)=O)cc4)c3C#N)C2)c1 [Example 118, N-(3-cyano-6-(3,5-dimethylbenzyl)-4,5,6,7-tetrahydrothieno[2,3-c]pyridin-2-yl)-2-(4-(methylsulfonyl)phenyl)acetamide] | 100 to 1000 | > 1000 | 100 to 1000 | 100 to 1000 |  |  |  |  |
| CS(=O)(=O)c1ccc(CC(=O)Nc2sc3c(c2C#N)CCN(Cc2cccc(F)c2)C3)cc1 [Example 119, N-(3-cyano-6-(3-fluorobenzyl)-4,5,6,7-tetrahydrothieno[2,3-c]pyridin-2-yl)-2-(4-(methylsulfonyl)phenyl)acetamide] | 100 to 1000 | > 1000 | < 100 | < 100 |  |  |  |  |
| COC(=O)c1cccc(CN2CCc3c(sc(NC(=O)Cc4ccc(S(C)(=O)=O)cc4)c3C#N)C2)c1 [Example 120, methyl 3-((3-cyano-2-(2-(4-(methylsulfonyl)phenyl)acetamido)-4,7-dihydrothieno[2,3-c]pyridin-6(51-1)-yl)methyl)benzoate] | 100 to 1000 | > 1000 | < 100 | 100 to 1000 |  |  |  |  |
| CS(=O)(=O)c1ccc(CC(=O)Nc2sc3c(c2C#N)CCN(Cc2cc(Cl)ccc2Cl)C3)cc1 [Example 121, N-(3-cyano-6-(2,5-dichlorobenzyl)-4,5,6,7-tetrahydrothieno[2,3-c]pyridin-2-yl)-2-(4-(methylsulfonyl)phenyl)acetamide] | 100 to 1000 | > 1000 | 100 to 1000 | > 1000 |  |  |  |  |
| CC1Cc2c(sc(NC(=O)Cc3ccc(S(N)(=O)=O)cc3)c2C#N)CN1Cc1cccc(F)c1 (stereo not shown) [Example 122, N-(3-cyano-6-(3-fluorobenzyl)-5-methyl-4,5,6,7-tetrahydrothieno[2,3-c]pyridin-2-yl)-2-(4-sulfamoylphenyl)acetamide] | < 100 | > 1000 | < 100 | 100 to 1000 |  |  |  |  |
| CC1Cc2c(sc(NC(=O)Cc3ccc(S(N)(=O)=O)cc3)c2C#N)CN1Cc1cccc(F)c1 (stereo not shown) [Example 123, N-(3-cyano-6-(3-fluorobenzyl)-5-methyl-4,5,6,7-tetrahydrothieno[2,3-c]pyridin-2-yl)-2-(4-sulfamoylphenyl)acetamide] |  |  |  |  | ++ (1 μM>++≥0.1 μM) | + (±≥1 μM) | ++ (1 μM>++≥0.1 μM) | ++ (1 μM>++≥0.1 μM) |
| N#Cc1c(NC(=O)Cc2ccc(S(N)(=O)=O)cc2)sc2c1CCN(Cc1cccc(F)c1)CC2 [Example 124, N-(3-cyano-6-(3-fluorobenzyl)-5,6,7,8-tetrahydro-4H-thieno[2,3-d]azepin-2-yl)-2-(4-sulfamoylphenyl)acetamide] | 100 to 1000 | 100 to 1000 | < 100 | < 100 |  |  |  |  |
| N#Cc1c(NC(=O)Cc2ccc(S(N)(=O)=O)cc2)sc2c1CCN(CC1CCCCC1)CC2 [Example 125, N-(3-cyano-6-(cyclohexylmethyl)-5,6,7,8-tetrahydro-4H-thieno[2,3-d]azepin-2-yl)-2-(4-sulfamoylphenyl)acetamide] | 100 to 1000 | > 1000 | 100 to 1000 | 100 to 1000 |  |  |  |  |
| N#Cc1c(NC(=O)Cc2ccc(S(N)(=O)=O)cc2)sc2c1CCCN(Cc1cccc(F)c1)C2 [Example 126, N-(3-cyano-7-(3-fluorobenzyl)-5,6,7,8-tetrahydro-4H-thieno[2,3-c]azepin-2-yl)-2-(4-sulfamoylphenyl)acetamide] | 100 to 1000 | 100 to 1000 | < 100 | 100 to 1000 |  |  |  |  |
| N#Cc1c(NC(=O)Cc2ccc(S(N)(=O)=O)cc2)sc2c1CCCN(CC1CCCCC1)C2 [Example 127, N-(3-cyano-7-(cyclohexylmethyl)-5,6,7,8-tetrahydro-4H-thieno[2,3-c]azepin-2-yl)-2-(4-sulfamoylphenyl)acetamide] | 100 to 1000 | > 1000 | 100 to 1000 | 100 to 1000 |  |  |  |  |
